test system: LPS triggered IL-10 secretion in monocytes; assay: Monocytes assay: LPS-triggered IL-10 (ELISA); assay type: cell-based, human; conditions: Homo sapiens, Monocyte, LPS-triggered IL-10 induction, median maximal fold change vs LPS only, read-out: IL-10 FCmax median
Summary of the method: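 CD14+ monocytes bead-isolated from human PBMCs, pretreated with compound 1 h at 37 °C (0.2% DMSO), then stimulated with LPS 200 ng/mL for 4 h. Supernatant IL-10 measured by chemiluminescent sandwich ELISA; fold change versus LPS only per concentration, reported as maximal fold change (FCmax).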

SMILES	maximal fold induction
COc1cc(-c2cnc3cc(C4COC4)ccn23)cc(OC(F)F)c1C(=O)NC1CC1 [Cpd 174, N-cyclopropyl-2-(difluoromethoxy)-6-methoxy-4-[7-(oxetan-3-yl)imidazo[1,2-a]pyridin-3-yl]benzamide]	1.5 to 4.5
COc1cc(-c2cnc3cc(C(O)CC#N)ccn23)cc(OC(F)F)c1C(=O)NC1CC1 (stereo not shown) [Cpd 175, 4-[7-(2-cyano-1-hydroxy-ethyl)imidazo[1,2-a]pyridin-3-yl]-N-cyclopropyl-2-(difluoromethoxy)-6-methoxy-benzamide]	1.5 to 4.5
COc1cc(-c2cnc3cc(C(C)(C#N)CO)ccn23)cc(OC(F)F)c1C(=O)NC1CC1 (stereo not shown) [Cpd 176, 4-[7-(1-cyano-2-hydroxy-1-methyl-ethyl)imidazo[1,2-a]pyridin-3-yl]-N-cyclopropyl-2-(difluoromethoxy)-6-methoxy-benzamide]	1.5 to 4.5
COCC(C)(C#N)c1ccn2c(-c3cc(OC)c(C(=O)NC4CC4)c(OC(F)F)c3)cnc2c1 (stereo not shown) [Cpd 195, 4-[7-(1-cyano-2-methoxy-1-methyl-ethyl)imidazo[1,2-a]pyridin-3-yl]-N-cyclopropyl-2-(difluoromethoxy)-6-methoxy-benzamide]	< 1.5
COc1cc(-c2cnc3cc(C4(O)CCC4)ccn23)cc(OC(F)F)c1C(=O)N[C@@H]1C[C@@H]1F [Cpd 205, 2-(difluoromethoxy)-N-[(1R,2S)-2-fluorocyclopropyl]-4-[7-(1-hydroxycyclobutyl)imidazo[1,2-a]pyridin-3-yl]-6-methoxy-benzamide]	1.5 to 4.5
COc1cc(-c2cnc3cc(C4COC4)ccn23)cc(OC(F)F)c1C(=O)N[C@@H]1C[C@@H]1F [Cpd 206, 2-(difluoromethoxy)-N-[(1R,2S)-2-fluorocyclopropyl]-6-methoxy-4-[7-(oxetan-3-yl)imidazo[1,2-a]pyridin-3-yl]benzamide]	1.5 to 4.5
COc1cc(-c2cnc3cc(C4(F)COC4)ccn23)cc(OC(F)F)c1C(=O)NC1CC1 [Cpd 207, N-cyclopropyl-2-(difluoromethoxy)-4-[7-(3-fluorooxetan-3-yl)imidazo[1,2-a]pyridin-3-yl]-6-methoxy-benzamide]	< 1.5
COc1cc(-c2cnc3cc(C(C)(C)O)ccn23)cc(OC(F)F)c1C(=O)N[C@@H]1C[C@@H]1F [Cpd 211, 2-(difluoromethoxy)-N-[(1R,2S)-2-fluorocyclopropyl]-4-[7-(1-hydroxy-1-methyl-ethyl)imidazo[1,2-a]pyridin-3-yl]-6-methoxy-benzamide]	1.5 to 4.5
COc1cc(-c2cnn3cc(C4COC4)ccc23)cc(OC(F)F)c1C(=O)NC1CC1 [Cpd 216, N-cyclopropyl-2-(difluoromethoxy)-6-methoxy-4-[6-(oxetan-3-yl)pyrazolo[1,5-a]pyridin-3-yl]benzamide]	< 1.5
COc1cc(-c2cnn3cc(C4COC4)ccc23)cc(OC(F)F)c1C(=O)N[C@@H]1C[C@@H]1F [Cpd 218, 2-(difluoromethoxy)-N-[(1R,2S)-2-fluorocyclopropyl]-6-methoxy-4-[6-(oxetan-3-yl)pyrazolo[1,5-a]pyridin-3-yl]benzamide]	1.5 to 4.5
COc1cc(-c2cnn3cc(C(C)(C)C#N)ccc23)cc(OC(F)F)c1C(=O)N[C@@H]1C[C@@H]1F [Cpd 219, 4-[6-(1-cyano-1-methyl-ethyl)pyrazolo[1,5-a]pyridin-3-yl]-2-(difluoromethoxy)-N-[(1R,2S)-2-fluorocyclopropyl]-6-methoxy-benzamide]	< 1.5
COc1cc(-c2cnc3cc(C4(F)COC4)ccn23)cc(OC(F)F)c1C(=O)N[C@@H]1C[C@@H]1F [Cpd 224, 2-(difluoromethoxy)-N-[(1R,2S)-2-fluorocyclopropyl]-4-[7-(3-fluorooxetan-3-yl)imidazo[1,2-a]pyridin-3-yl]-6-methoxy-benzamide]	1.5 to 4.5
COc1cc(-c2cnn3cc(C4COCCO4)ccc23)cc(OC(F)F)c1C(=O)NC1CC1 (stereo not shown) [Cpd 232, N-cyclopropyl-2-(difluoromethoxy)-4-[6-(1,4-dioxan-2-yl)pyrazolo[1,5-a]pyridin-3-yl]-6-methoxy-benzamide]	< 1.5
